# In ChEMBL document CHEMBL2062363, “Ligand-based design, in silico ADME-Tox filtering, synthesis and biological evaluation to discover new soluble 1,4-DHP-based CFTR activators” (Eur J Med Chem, 2012):
# Experiments:
# [1] = Potentiation of forskolin-induced CFTR deltaF508 mutant expressed in FRT cells co-expressing halide-sensitive YFP-H148Q/I152L by fluorescence quenching assay; assay type: cell-based, Homo sapiens
# [2] = biological target: L-type voltage-dependent Ca2+ channel (Homo sapiens, UniProt O60840+Q01668+Q13698+Q13936); experiment: Inhibition of L-type voltage-dependent Ca2+ channel at 1 uM
# [3] = Induction of nitric oxide release in phosphate buffer at pH 7.4 at 10^-4 M after 1 hr by Griess reaction presence of L-cysteine; assay type: physicochemical; settings: pH 7.4, 1 h, 100 µM
pEC50 for potentiation of CFTR deltaF508 (activation potency) [1],inhibition at 1 µM [2],Compound,Activity [3]
6.1,10.6%,COCCOC(=O)C1=C(C)N=C(C)/C(=C(/O)OCCOC)C1/C=C/c1ccccc1OC (configuration not stated),–
5.58,29.7%,C=CCO/C(O)=C1\C(C)=NC(SCC)=C(C#N)C1c1ccc(Cl)cc1 (configuration not stated),–
6.52,96.8%,CC1=C(C(=O)OC(C)C)C(c2ccc(F)cc2)C(C(=O)OC(C)C)=C(C)N1,–
6.3,55.7%,C=CCOC(=O)C1=C(C)NC(C)=C(C(=O)OCC=C)C1c1ccc(C)cc1,–
6.4,81%,C=CCOC(=O)C1=C(C)NC(C)=C(C(=O)OCC=C)C1c1ccc(Cl)cc1Cl,–
5.77,70.5%,COC(=O)C1=C(C)NC(C)=C(C(=O)OC)C1c1ccccc1,–
6.26,36.7%,C=CCOC(=O)C1=C(C)NC(SC)=C(C#N)C1c1ccc(Cl)cc1 (configuration not stated),–
5.52,9.6%,CCCCOc1ccc(C2C(C(=O)OCC)=C(C)NC(C)=C2C(=O)OCC)cc1,–
5.3,23.4%,CCOC(=O)C1=C(C)NC(SC)=C(C#N)C1c1ccccc1 (configuration not stated),–
5.82,23.9%,C=CCOC(=O)C1=C(C)NC(C)=C(C(=O)OCC=C)C1c1ccc(N(C)C)cc1,–
6.74,100%,C=CCOC(=O)C1=C(C)NC(C)=C(C(=O)OCC=C)C1c1ccccc1Cl,–
5.77,38.2%,CCOC(=O)C1=C(C)NC(C)=C(C(=O)OCC)C1c1ccc2c(c1)OCO2,–
6.34,12.3%,COC(=O)C1=C(C)NC(C)=C(C(=O)OC)C1c1ccc(I)cc1,–
5.46,22.5%,COC(=O)C1=C(C)NC(C)=C(C(=O)OC)C1c1ccc(OCc2ccccc2)cc1,–
5.88,–,COC(=O)C1=C(C)NC(C)=C(C(=O)OCCCO[N+](=O)[O-])C1c1cccc([N+](=O)[O-])c1 (configuration not stated),< 0.5%

# Continued, compound first:
Compound,pEC50 for potentiation of CFTR deltaF508 (activation potency) [1],inhibition at 1 µM [2],Activity [3]
CCOC(=O)C1=C(C)NC(C)=C(C(=O)OCC)C1c1ccc([N+](=O)[O-])cc1,5.71,47.4%,–
CCOC(=O)C1=C(C)NC(C)=C(C(=O)OCC)C1c1cccc(Oc2ccccc2)c1,6.59,43.2%,–
C=CCOC(=O)C1=C(C)NC(C)=C(C(=O)OCC=C)C1/C=C/c1ccccc1OC,6.49,18%,–
CCOC(=O)C1=C(C)NC(C)=C(C(=O)OCC)C1c1ccc(C(C)C)cc1,6.22,30.8%,–
C=CCOC(=O)C1=C(C)NC(C)=C(C(=O)OCC=C)C1c1cccc([N+](=O)[O-])c1,6.92,100%,–
C=CCOC(=O)C1=C(C)NC(C)=C(C(=O)OCC=C)C1c1ccc(OC)c(OC)c1,5.55,28.7%,–
C=CCOC(=O)C1=C(C)NC(C)=C(C(=O)OCC=C)C1c1ccc(O)c(OCC)c1,6.46,63.6%,–
C=CCOC(=O)C1=C(C)NC(C)=C(C(=O)OCC=C)C1c1ccc(C(C)C)cc1,6.6,64%,–
CCOC(=O)C1=C(C)NC(C)=C(C(=O)OCC)C1c1c(F)cccc1Cl,6.44,100%,–
COC(=O)C1=C(C)NC(C)=C(C(=O)OC)C1c1ccc(C(C)(C)C)cc1,5.52,20.9%,–
COCCOC(=O)C1=C(C)NC(C)=C(C(=O)OCCOC)C1c1ccc(-c2cccc(Cl)c2Cl)o1,5.7,44.9%,–
CCN(CC)c1ccc(C2C(C(=O)OC)=C(C)NC(C)=C2C(=O)OC)cc1,5.92,7.1%,–
COC(=O)C1=C(C)NC(C)=C(C(=O)OC)C1c1cccc(F)c1,6.21,91.9%,–
C=CCOC(=O)C1=C(C)NC(C)=C(C(=O)OCC=C)C1c1ccc(C(=O)OC)cc1,5.52,7.8%,–
C=CCOC(=O)C1=C(C)NC(C)=C(C(=O)OCC=C)C1c1cccc(Cl)c1,6.82,100%,–
CC1=C(C(=O)OC(C)C)C(c2ccc(C)cc2)C(C(=O)OC(C)C)=C(C)N1,6.27,47%,–
COC(=O)C1=C(C)NC(C)=C(C(=O)OC)C1c1ccc(-c2ccc(Cl)c(Cl)c2)o1,5.51,8.3%,–
COC(=O)C1=C(C)NC(C)=C(C(=O)OC)C1c1ccc(-c2cccc(Cl)c2Cl)o1,5.43,10.3%,–
C=CCOC(=O)C1=C(C)NC(C)=C(C(=O)OCC=C)C1c1ccc(OC)cc1,6.3,37.2%,–
C=CCOC(=O)C1=C(C)NC(C)=C(C(=O)OCC=C)C1c1ccc(I)cc1,5.77,37.5%,–
CC1=C(C(=O)OCCCO[N+](=O)[O-])C(c2cccc([N+](=O)[O-])c2)C([N+](=O)[O-])=C(C)N1 (racemic),5.07,–,< 0.5%
